Patent publication US11066412B2, “Substituted pyrrolo[2,1-a]phthalazines and benzo[g]pyrrolo[2,1-a]phthalazines for the treatment of cancer” (Academia Sinica, priority 2017, dated 2021)

What was measured:
[1] = test system: endothelial cells; experiment: transwell migration assay; assay type: cell-based; settings: 8 hours; FIG. 4, panel A
Description: In the present example, we explored whether compound BO-2590 was able to suppress the cell migration using transwell migration assay.
Briefly, the endothelial cells were placed on the upper layer of a cell permeable membrane and a solution containing BO-2590 was placed below the cell permeable membrane. Following an incubation period (8 hours), the cells that had migrated through the membrane were stained and counted under a fluorescence microscopy.

[2] = test system: EA.hy926 cells; experiment: Tube-Formation Assay; assay type: cell-based; settings: 24 hr pre-treatment, 48-hr incubation on matrigel; FIG. 4
Description: Angiogenesis is the process of generating new blood vessels derived as extensions from the existing vasculature. Performance of vascular behavior or monitoring tube formation can determine whether the compound is capable of interrupting angiogenesis. In this example, whether the compound of formula (I) interrupted angiogenesis was investigated using Tube-Formation Assay.
Briefly, EA.hy926 cells were treated with various concentrations of BO-2590 for 24 hr. After that, cells (5×10^5 cells/well) were suspended in 100 μl medium containing 1% FCS and subsequently seeded onto 96-well plate pre-coated with matrigel 1 h at 37° C. After a 48-hr incubation, tube-formation ability was examined under a phase microscope.

[3] = test system: H460 lung cancer cells; experiment: cell cycle distribution by flow cytometry; assay type: cell-based, human
Description: We further investigated the effects of BO-2590 on cell cycle progression in H460 lung cancer cells at the concentrations of 0, 0.125, 0.25, 0.5, 1 and 2 μM for 24, 48 and 72 hr. The cell cycle distribution was analyzed by flow cytometry. […] By increasing the concentration of BO-2590, significant arrest at the G2 phase was first observed, which was followed by the arrest of the S phase progression, and finally the G1 arrest appeared at 24 hr. However, following the incubation for 48 or 72 hr, while the cell cycle slowly processed, a significant amount of the sub-G1 cells started to appear (FIG. 6). The sub-G1 cells also represented apoptotic cells.

[4] = test system: H460 cell lines; experiment: Annexin V staining assay; assay type: cell-based, human; settings: 0.5, 1 and 2 μM, 48 hr; FIG. 7
Description: In this example, Annexin V staining assay was used to assess BO-2590 induced apoptotic cell death in H460 cell lines. Briefly, H460 cells were treated with BO-2590 at the concentrations of 0.5, 1 and 2 μM for 48 hr and then stained with Annexin V-FITC and propidium iodide. The stained cells were analyzed by flow cytometry.

[5] = test system: γ-H2AX; experiment: immunohistochemical staining of tumor xenograft sections, DNA damage marker; assay type: in vivo, nude mice; settings: FIG. 16, panel B
Description: Tumor xenograft tissue sections on the slides were deparaffinized in xylene twice for 7 min each time. The slides were then rehydrated in graded ethanol, serially from 100% to 70%, followed by rinsing in dH2O. Antigen retrieval was performed using citrate buffer (0.01M, pH 6.0) with incubation in a cooker for 50 mins followed by ambient temperature cooling for 30 min. and then dH2O rinsing. Later slides were subjected to immunohistochemical (IHC) staining with primary antibodies (anti-rabbit CD31 antibody and anti-mouse γ-H2AX antibody) obtained from Abeam® following the manufacturer's instructions (Novolink Polymer Detection system, Leica Biosystems, Wetzlar, Germany).^11 After IHC processing, the slides were scanned digitally using the Panoramic 250 Flash II whole slide scanner and analyzed by 3[…] Panoramic viewer software (3[…] Ltd., Budapest, Hungary).
As BO-2590L is a DNA damaging agent, we thus investigated the effect of BO-2590L on the level of a DNA damage marker, γ-H2AX, via the use of immunohistochemical staining.

[6] = solubility / hydrophobicity (statement); assay type: physicochemical
[7] = test system: H1417; experiment: in vitro cytotoxicity to SCLC cells; assay type: cell-based, human; settings: Table 3
Method in brief: (§1)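 SCLC lines exposed to compounds for 72 h, then viability measured by PrestoBlue (1–2 h at 37° C, absorbance 570/600 nm).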

[8] = test system: H146; experiment: in vitro cytotoxicity to SCLC cells; assay type: cell-based, human; settings: Table 3
Method in brief: as §1

[9] = test system: H211; experiment: in vitro cytotoxicity to SCLC cells; assay type: cell-based, human; settings: Table 3
Method in brief: as §1

[10] = test system: H82; experiment: in vitro cytotoxicity to SCLC cells; assay type: cell-based, human; settings: Table 3
Method in brief: as §1

[11] = test system: H526 cell lines; experiment: Annexin V staining assay; assay type: cell-based; settings: 0.01-0.08 μM, 72-h treatment; FIG. 8
Description: In this example, the effect of BO-2768 was assessed in accordance with procedures of Example 4.7 except apoptotic cell death was determined in H526 cell lines. Briefly, H526 cells were treated with BO-2768 at the concentrations of 0.01, 0.02, 0.04 and 0.08 μM or with cisplatin at the concentrations of 2, 4, 8 and 16 μM for 24, 48 or 72 hrs and then stained with Annexin V-FITC and propidium iodide. The stained cells were analyzed by flow cytometry.

[12] = test system: H211 cells; experiment: combination with cisplatin, proliferation by PrestoBlue assay; assay type: cell-based; settings: co-administration of BO-2768 and cisplatin, ratio 1:2, 1:4 and 1:8; FIG. 9
Description: In this example, whether synergistic effect on the suppression of cell proliferation exists between BO-2768 and cisplatin was investigated. To this purpose, H211 cells were treated with BO-2768 or cisplatin, alone or in combination, and proliferation rate of H211 cells was analyzed by PrestoBlue assay. Results are depicted in FIG. 9.

solubility [6] | SMILES | cell migration [1] | tube formation [2] | cell cycle progression ([3]; 0.125-2 μM, 24, 48 and 72 hr, FIG. 5) | sub-G1 (apoptotic) cells ([3]; 48 or 72 hr, FIG. 6) | proportion of Annexin V+ cells [4] | γ-H2AX signals, quantitative analysis [5] | IC50 [7] [nM] | IC50 [8] [nM] | IC50 [9] [nM] | IC50 [10] [nM] | proportion of Annexin V+ cells [11] | numbers of proliferated H211 cells, combination effect [12]
poor | Cc1c(CO)c(CO)c2c3ccccc3c(N3CCC(N4CCCCC4)CC3)nn12 [BO-2590, (6-([1,4′-Bipiperidin]-1′-yl)-3-methylpyrrolo[2,1-α]phthalazine-1,2-diyl)dimethanol] | impairment in cell migration | markedly and dose-dependently abolished tube formation | dose-dependently interfered with cell cycle progression | dose-dependently induced the sub-G1 cells | significantly increased the proportion of Annexin V^+ cells in a dose-dependent manner | time-dependently increased in γ-H2AX signals | – | – | – | – | – | –
– | Cc1c(CO)c(CO)c2c3cc4ccccc4cc3c(N(C)C)nn12 [BO-2768, (6-(Dimethylamino)-3-methylbenzo[g]pyrrolo[2,1-α]phthalazine-1,2-diyl)dimethanol] | – | – | – | – | – | – | 420 ± 190 | 1170 ± 290 | 170 ± 70 | 310 ± 140 | significantly increased the proportion of Annexin V^+ cells in a dose-dependent manner | synergistic reduction in the numbers of proliferated H211 cells
